In general, IC50 refers to the concentration needed to halve the response being measured.

The record followed here is PubChem BioAssay AID1259371 (The Scripps Research Institute Molecular Screening Center, 2018).

Active and inactive are the calls of the source. No rule for the calls is given here.

The experiment deals with Microphthalmia-associated transcription factor (Homo sapiens) (UniProt O75030). The experiment in a line: compounds blocking human MITF signal – biochemical, AlphaScreen, dose response (AID 1259371). The following applies: AlphaScreen biochemical MITF assay, signal inhibition. Background: In Alpha technology, singlet oxygen from a donor bead excites a nearby acceptor bead.
Microphthalmia-associated transcription factor (Homo sapiens), sequence (O75030 whole entry, looked up): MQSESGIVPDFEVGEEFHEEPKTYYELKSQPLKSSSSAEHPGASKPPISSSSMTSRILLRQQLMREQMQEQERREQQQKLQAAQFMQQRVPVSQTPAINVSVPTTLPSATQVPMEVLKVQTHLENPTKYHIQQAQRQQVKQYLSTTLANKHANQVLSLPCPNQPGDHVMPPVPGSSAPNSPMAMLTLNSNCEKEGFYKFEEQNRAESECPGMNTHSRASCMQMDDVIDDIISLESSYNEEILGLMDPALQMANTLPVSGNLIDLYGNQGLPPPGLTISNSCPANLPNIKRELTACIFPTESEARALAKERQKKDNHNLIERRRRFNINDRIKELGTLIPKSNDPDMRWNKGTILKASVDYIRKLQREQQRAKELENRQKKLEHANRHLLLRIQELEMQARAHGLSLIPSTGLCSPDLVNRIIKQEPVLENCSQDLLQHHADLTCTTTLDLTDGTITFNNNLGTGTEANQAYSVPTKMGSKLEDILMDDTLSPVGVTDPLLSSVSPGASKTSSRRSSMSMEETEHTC
In the case of `Cc1cc2c(c(=O)[nH]1)C(=O)O/C2=C\c1ccc(C)o1`, the IC50 was 333 nM. Take `O=C(O)c1cc(N=Cc2ccco2)ccc1O`: the IC50 is 778 nM.

As to `O=C(O)c1cc(-c2ccco2)nc2ccccc12`, the IC50 result was “inactive”. Consider `NC(=O)c1ccc(-c2cccs2)s1`, for which the IC50 is > 7320 nM (inactive). The value for `CCc1ccc(CN2CCN(Cc3cc(OC)c(O)c(OC)c3)CC2)cc1` was > 5790 nM (inactive). The value for `O=C(/C=C/c1ccco1)NC(=S)NNC(=O)c1ccccc1O` was > 2160 nM (inactive); that for `c1ccc(COc2ccc(OCCCCn3ccnc3)cc2)cc1` was > 6480 nM (inactive).

On to `CCS(=O)(=O)NCC(c1cccs1)S(=O)(=O)c1ccc(C)cc1` (stereo not given), for which the IC50 is 804 nM. Regarding `NS(=O)(=O)c1ccc(N=Cc2cc3c(cc2[N+](=O)[O-])OCO3)cc1`, the IC50 result is “inactive”. The value for `CC1CCC(N2CCN(Cc3ccco3)CC2)CC1` (stereo not given) was “inactive”.

Regarding `O=C(NCCc1ccc(O)cc1)c1ccnc(-c2cccs2)c1`, the IC50 result is “inactive”. For `C[C@@H](OCc1ccccc1)[C@@H]1NC(=O)[C@H]2CN(C(=O)NCc3ccccc3)CCN2C1=O`, the IC50 entry was “inactive”.

Take `O=C(O)c1ccc(NC2OC(CO)C(O)C2O)cc1` (stereo not given): the IC50 result was “inactive”. Consider `N#C/C(=C/c1ccco1)c1cccc(F)c1`, for which the IC50 entry was “inactive”. The value for `Cc1sc2nc(C)n3c(=O)n(CC(=O)NCc4ccco4)nc3c2c1C` was “inactive”. As for `COc1ccc(CN2CCN(Cc3cccc(Cl)c3)CC2)cc1Br`, the IC50 result is “inactive”.

`NC(=O)C1CCN(C(=O)c2cc(-c3ccco3)nc3ccccc23)CC1`: the IC50 is 45.3 nM. The value for `O=C(/C=C/c1ccco1)NC(=S)Nc1ccc(Cl)c(C(=O)O)c1` was 527 nM. The value for `Cc1ccc(CCC(=O)Nc2ccc(-c3cn4c5c(nnc4n3)CCCC5)cc2)o1` was 306 nM; that for `O=c1cc(/C=C/c2ccc(O)cc2)nc2nn[nH]n12` was “inactive”. The value for `CN(N=O)c1cc(O)ccc1O` was 98.7 nM; that for `O=C(OC1(C(F)(F)F)C(=O)Nc2cc3c(cc21)OCO3)c1ccc(Cl)nc1` (stereo not given) was 179 nM. In the case of `COC(=O)c1ccc(=O)c2nc3/c(=C/O)c(O)cc(=O)c3[nH]c12`, the IC50 is 259 nM.

Consider `O=C(c1cccc(F)c1)N1CCN(Cc2ccncc2)CC1`, for which the IC50 was > 5660 nM (inactive). The value for `Cn1c(SCc2cc(=O)n3c(n2)sc2ccccc23)nnc1C(F)(F)F` was “inactive”; that for `O=C(NCc1cccnc1)c1ccnc(-c2cccs2)c1` was “inactive”. For the molecule `O=C(O)CCC(NCc1ccco1)C(=O)O` (stereo not given), the IC50 is 806 nM. The value for `OC[C@H]1OC([S-])[C@H](O)[C@@H](O)[C@@H]1O.[Au+]` (stereo not given in full) was “inactive”; that for `Cc1cccc(N2CCN(C(=O)/C=C\C(=O)O)CC2)c1C` was “inactive”.

Consider `O=C(COC(=O)COc1ccc(Cl)cc1)NCc1ccco1`, for which the IC50 is > 2400 nM (inactive). The value for `CC(C)N(C(=O)COC(=O)c1cc(-c2ccco2)nc2ccccc12)C(C)C` was “inactive”; that for `O=C(Nc1ccc(N2CCOCC2)cc1)c1cccc(Nc2ccncn2)n1` was “inactive”; that for `NC(=O)n1c(CCC(=O)O)nc2sc3c(c2c1=O)CCC3` was 211 nM. Regarding `O=P(O)(O)C(Sc1ccc(Cl)cc1)P(=O)(O)O`, the IC50 is 62.6 nM.

As for `O=C1N[C@H](Cc2ccccc2)C(=O)N2CCN(C(=O)NCc3ccccc3)C[C@H]12`, the IC50 entry was “inactive”.

`Cc1ccc([N+](=O)[O-])cc1S(=O)(=O)Nc1ccc(Nc2ncccc2[N+](=O)[O-])cc1`: the IC50 was 423 nM. The value for `CN(C)c1ccc(O)c2c1C[C@H]1C[C@H]3[C@H](N(C)C)C(=O)C(C(N)=O)=C(O)[C@@]3(O)C(=O)C1=C2O` was 29.7 nM; that for `CCC12c3ccccc3C(c3ccccc31)C1C(=O)NC(=O)C12` (stereo not given) was > 2160 nM (inactive). The value for `c1ccc2c(c1)OCC(c1nc3c(-c4ccncc4)cncc3[nH]1)O2` (stereo not given) was > 2160 nM (inactive); that for `CCOC(=O)N1CCC(NC(=O)CCc2nc(C3=CCN(C)CC3)no2)CC1` was “inactive”; that for `O=C(Nc1ccc(N2CCOCC2)cc1)c1ccc2nc(Nc3ccccn3)sc2c1` was 537 nM. The value for `COc1ccc2c(c1)CC(C(=O)Nc1ccc(-c3cn[nH]c3)cc1OCc1ccccc1)CO2` (stereo not given) was “inactive”; that for `O=C1NC(=S)N/C1=C\c1ccc([N+](=O)[O-])o1` was 239 nM; that for `O=C(O)c1cccc(-n2cccc2/C=C\[N+](=O)[O-])c1` was 271 nM.

Take `NC(=O)Cn1cnc2sc3c(c2c1=O)CCC3`: the IC50 result was “inactive”.

Turning to `CC(C)C[C@H]1C(=O)N2CCN(C(=O)NC3CCCCC3)C[C@@H]2C(=O)N1C`, the IC50 is > 2160 nM (inactive). The value for `NC(=O)c1ccc2nc(-c3cccs3)sc2c1` was > 6180 nM (inactive). As for `O=C(Nc1ccc(N2CCOCC2)cc1)c1ccc2nc(-c3cccs3)sc2c1`, the IC50 entry is “inactive”. The value for `O=C(NC1CCCCC1)N1CCN2C(=O)[C@@H]3CCCN3C(=O)[C@H]2C1` was “inactive”. The value for `O=C(Nc1ccc(Cl)cc1Cl)N1CCN2C(=O)[C@@H]3CSCN3C(=O)[C@H]2C1` was “inactive”; that for `N#Cc1c(SCC(=O)O)nc2c(c1-c1ccco1)CCC2` was 194 nM. The value for `N#Cc1cc([N+](=O)[O-])ccc1NC(=O)COC(=O)c1cc(-c2ccco2)nc2ccccc12` was “inactive”; that for `O=C1N[C@H](Cc2ccccc2)C(=O)N2CCN(C(=O)NC3CCCCC3)C[C@H]12` was 873 nM. `COc1ccc(C[C@@H]2NC(=O)[C@H]3CN(C(=O)NCc4ccccc4)CCN3C2=O)cc1`: the IC50 entry was “inactive”. The value for `CC(=O)Oc1ccccc1N1C(=O)c2ccc(Oc3cccc(N)c3)cc2C1=O` was 479 nM; that for `N#C/C(=C\c1nn(-c2ccccc2)c(N)c1C#N)c1ccco1` was 386 nM.

For `CN(C)CCS(=O)c1cc(-c2cn[nH]c2)ccc1NC(=O)[C@H]1Cc2cc(F)ccc2CN1` (stereo not given in full), the IC50 entry was “inactive”. The value for `Nc1cc(Br)cnc1N` was 61.9 nM; that for `CN=C1SC(CC(=O)Nc2cccc(C(=O)O)c2)C(=O)N1C` (stereo not given) was “inactive”; that for `CC(=O)Oc1cc(C(=O)OCC(=O)Nc2ccc(C)cc2)cc(OC(C)=O)c1OC(C)=O` was “inactive”. Take `COC(=O)CN(CCN(CC(=O)O)CC(=O)OC)CC(=O)O`: the IC50 entry was “inactive”. The value for `C=CCc1cc(Cl)ccc1OCCOCCNCCOC` was > 6480 nM (inactive).

In the case of `O=C(/C=C/c1ccco1)Nc1c[nH]c(=O)[nH]c1=O`, the IC50 entry was “inactive”.

`c1cc2c(cc1CNc1nc(Nc3ccc(N4CCOCC4)cc3)c3ncn(C4CCCCC4)c3n1)OCO2`: the IC50 result was “inactive”. The value for `c1cncc(CNc2nc(Nc3ccc(N4CCOCC4)cc3)c3ncn(C4CCCCC4)c3n2)c1` was > 4840 nM (inactive); that for `Nc1ccc(NCCO)c(N)c1` was “inactive”. Turning to `Cc1cc2ncn(Cc3noc(-c4ccco4)n3)c2cc1C`, the IC50 was > 6480 nM (inactive). The value for `O=C(OC1CCOC1=O)c1cc(-c2ccco2)nc2ccccc12` (stereo not given) was 338 nM; that for `O=C(/C=C/c1ccco1)NCCCCNC(=O)/C=C/c1ccco1` was 180 nM.

As for `CCN(CCN(C)C)Cc1ccc(F)cc1`, the IC50 was > 6480 nM (inactive). The value for `COc1cccc(CC(=O)Nc2nnc(-c3ccco3)c(-c3ccco3)n2)c1` was 113 nM; that for `N#CC1=C(N)n2c(s/c(=C\c3ccco3)c2=O)=C(C#N)C1c1ccco1` (stereo not given) was 3.85 nM; that for `O=C1N[C@H](CO)C(=O)N2CCN(C(=O)NCc3ccccc3)C[C@H]12` was 526 nM.

For the molecule `CN1CCN(CCNC(=O)c2cccc(CN(C(=O)c3nc4ccc(-c5cn[nH]c5)cc4s3)C3CC3)c2)CC1`, the half-maximal inhibitory concentration (IC50) was 645 nM. The value for `O=C1NC(=O)/C(=C\c2ccc(O)cc2O)S1` was “inactive”. The value for `CCOC(=O)C1C2NC(=S)N(CC)C1(C)Oc1ccc(Cl)cc12` (stereo not given) was “inactive”; that for `CCOC(=O)C1C2NC(=S)N(c3ccccc3)C1(C)Oc1cc(OC)ccc12` (stereo not given) was > 6400 nM (inactive); that for `COc1ccc(S(=O)(=O)N2CCN(Cc3ccccc3[N+](=O)[O-])CC2)cc1` was > 4330 nM (inactive).

As to `O=C(O)c1cc(NN=C2CCCC2)ccc1Cl`, the concentration for half-maximal inhibition (IC50) was 408 nM.

In the case of `CN1CC[C@H](Oc2cc(-c3cn[nH]c3)ccc2NC(=O)OCc2ccccc2)C1`, the IC50 result is “inactive”.

For `C[C@H]1NC(=O)[C@H]2CN(C(=O)NCc3ccccc3)CCN2C1=O`, the IC50 entry is “inactive”. With `COc1ccc(C)cc1NS(=O)(=O)c1ccc2c(c1)CCC(=O)N2`, the IC50 result is “inactive”. Consider `Cc1cc(C(=O)O)ccc1-c1ccc(/C=C2/NC(=O)NC2=O)o1`, for which the IC50 entry is “inactive”. The value for `CC[C@@H]1NC(=O)[C@H]2CN(C(=O)NC3CCCCC3)CCN2C1=O` was 270 nM. The value for `CC[C@H](C)[C@@H]1NC(=O)[C@H]2CN(C(=O)Nc3cccc(F)c3)CCN2C1=O` was “inactive”; that for `COc1cccc(CN2CCC(CNc3ccc(-c4ccncc4)cc3)C2)c1` (stereo not given) was 285 nM; that for `O=S(=O)(O)c1cc(S(=O)(=O)O)c2cc(O)c(S(=O)(=O)O)cc2c1` was 156 nM.

On to `O=C(c1ccncc1)N1CCN(Cc2ccccc2[N+](=O)[O-])CC1`, for which the IC50 is > 6130 nM (inactive). The value for `CCOC(=O)N1CCN(C(=S)Nc2ccc(OCC)cc2)CC1` was “inactive”; that for `Cc1ccc(C)n1C(Cc1c[nH]c2ccccc12)C(=O)O` (stereo not given) was 680 nM. The value for `Nc1cc2c(S(=O)(=O)O)cc(S(=O)(=O)O)cc2cc1S(=O)(=O)O` was > 6480 nM (inactive); that for `CC(C)N(C)CCOC(=O)/C=C/c1ccco1` was “inactive”; that for `O=C1Nc2ccc(S(=O)(=O)NCc3ccccc3)cc2C1=O` was “inactive”. With `CC(=C/C(=O)O)/C=C/c1ccoc1`, the IC50 is 159 nM. The value for `C/C(=N\NC(=O)Cc1cc(=O)[nH][nH]1)c1ccco1` was “inactive”.
